Results as given in US9278958B2, “Anti-cancer compounds” (KATHOLIEKE UNIVERSITEIT LEUVEN, priority 2012, dated 2016).
Where two headings read alike, the source gives them in different places.

Columns and labels:
[1] = system: U937, human monocytic cells; test: Cytostatic assay, U937; assay type: cell-based; details: U-937, Table 2
In short: (§1)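 Each cell line grows in the presence of compound for 48 h to 96 h, the duration chosen per line, at 37° C in a humid CO2-regulated incubator. Seeding is 5-7.5×10^4 cells per well, and final counts come from a Coulter counter.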

[2] = system: PNT1A (UZ) prostate cells; test: Cytostatic assay, PNT1A (UZ); assay type: cell-based; details: Homo sapiens, Table 4
In short: as §1

[3] = system: PLC/PRF/5 hepatoma cells; test: Cytostatic assay, PLC/PRF/5; assay type: cell-based; details: Homo sapiens, Table 4
In short: as §1

[4] = system: HeLa cervix carcinoma cells; test: Cytostatic assay, HeLa; assay type: cell-based, human; details: Homo sapiens; Table 3; read-out: Cytostatic activity (μM) Hela
In short: as §1

[5] = system: Raji, human B-lymphoma cells; test: Cytostatic assay, Raji; assay type: cell-based; details: Table 2
In short: as §1

[6] = system: DU145 (UZ) prostate cancer cells; test: Cytostatic assay, DU145 (UZ); assay type: cell-based; details: Homo sapiens, DU-145; Table 4
In short: as §1

[7] = system: FM3A mammary carcinoma cells; test: Cytostatic assay, FM3A; assay type: cell-based, murine; details: Mus musculus, Table 3
In short: as §1

[8] = system: OST TK- osteosarcoma cells; test: Cytostatic assay, OST TK-; assay type: cell-based; details: Homo sapiens; Table 3
In short: as §1

[9] = system: Daudi, human B-lymphoma cells; test: Cytostatic assay, Daudi; assay type: cell-based; details: Table 2
Description: (§2) To each well of a 96-well microtiter plate were added 5-7.5×10^4 cells and a given amount of the test compound. The cells were allowed to proliferate for 48 h to 96 h (depending on the nature of the cell line) at 37° C. in a humidified CO2-controlled atmosphere. At the end of the incubation period, the cells were counted in a Coulter Counter (Coulter Electronics Ltd, Harpenden Herts, United Kingdom).

[10] = system: HL60, human leukemia cells; test: Cytostatic assay, HL-60; assay type: cell-based; details: Table 2
In short: as §1

[11] = system: HOS CD4+ osteosarcoma cells; test: Cytostatic assay, HOS CD4+; assay type: cell-based; details: Homo sapiens; Table 3
Description: as §2

[12] = system: protein synthesis in CEM cells; test: Antimetabolic activity assay, [4,5-3H]leucine incorporation (protein synthesis), CEM; assay type: cell-based; details: Homo sapiens, CCRF-CEM, incorporation into TCA-insoluble material
Description: (§3) Radiolabeled precursors of DNA synthesis ([^3H-methyl]dThd), RNA synthesis ([5-^3H]Urd), and protein synthesis ([4,5-^3H]leu) were added to 10^5 CEM cell cultures in the 200 μl-wells of a microtiter plate at 1 μCi for each precursor in the presence of varying concentrations of the test compounds (5-fold dilution series). The cells were allowed to proliferate for 20 hrs at 37° C. in a humidified, CO2-controlled atmosphere. At the end of the incubation period, the contents of the wells were brought onto 25-mm glass fiber filters and further processed for measurement of acid-insoluble radioactivity.

[13] = system: MT-4 cells; test: Cytostatic assay, MT-4; assay type: cell-based; details: Homo sapiens, MT4; Table 2
In short: as §1

[14] = system: 293T embryonic kidney cells; test: Cytostatic assay, 293T; assay type: cell-based; details: Homo sapiens, HEK-293T; Table 3
In short: as §1

[15] = system: HUT-78 cells; test: Cytostatic assay, HUT-78; assay type: cell-based; details: Homo sapiens, HuT78; Table 2
In short: as §1

[16] = system: MCF-7 mammary carcinoma cells; test: Cytostatic assay, MCF-7; assay type: cell-based; details: Homo sapiens, MCF7; Table 3
In short: as §1

[17] = system: U87 glioma cells; test: Cytostatic assay, U87; assay type: cell-based; details: Homo sapiens, U-87 MG; Table 3
In short: as §1

[18] = system: HEL embryonic lung fibroblast cells; test: Cytostatic assay, HEL; assay type: cell-based; details: Homo sapiens, Table 3
In short: as §1

[19] = system: PC-3 (UZ) prostate cancer cells; test: Cytostatic assay, PC-3 (UZ); assay type: cell-based; details: Table 4
In short: as §1

[20] = system: C8166 cells; test: Cytostatic assay, C8166; assay type: cell-based; details: Homo sapiens, Table 2
In short: as §1

[21] = system: L1210 cells; test: Cytostatic assay, L1210; assay type: cell-based; details: Mus musculus, Table 2
In short: as §1

[22] = system: CEM cells; test: Cytostatic assay, CEM; assay type: cell-based; details: Homo sapiens, CCRF-CEM
In short: as §1

[23] = system: broad variety of tumor cell lines; test: Cytostatic assays, summary over the panel of cell lines (Tables 2-4); assay type: cell-based
Description: as §2

[24] = system: U87 CD4+/CXCR4+/CCR5+ glioma cells; test: Cytostatic assay, U87 CD4+/CXCR4+/CCR5+; assay type: cell-based; details: Homo sapiens, Glioma cell; Table 3
Description: as §2

[25] = system: Molt4/C8 cells; test: Cytostatic assay, Molt4/C8; assay type: cell-based; details: Table 2
In short: as §1

[26] = system: PC3 (rega) prostate cancer cells; test: Cytostatic assay, PC3 (rega); assay type: cell-based; details: Table 4
In short: as §1

[27] = system: DNA synthesis in CEM cells; test: Antimetabolic activity assay, [CH3-3H]dThd incorporation (DNA synthesis), CEM; assay type: cell-based; details: Homo sapiens, CCRF-CEM, incorporation into TCA-insoluble material
Description: as §3

[28] = system: 22Rv1 (UZ) prostate cancer cells; test: Cytostatic assay, 22Rv1 (UZ); assay type: cell-based; details: Homo sapiens, Table 4
In short: as §1

[29] = system: MT-2 cells; test: Cytostatic assay, MT-2; assay type: cell-based; details: Homo sapiens, MT2; Table 2
In short: as §1

[30] = system: protein synthesis in Raji cells; test: Antimetabolic activity assay, [4,5-3H]leucine incorporation (protein synthesis), Raji; assay type: cell-based; details: Homo sapiens, incorporation into TCA-insoluble material
Description: [The procedure below names another cell line; the source lists this cell line under the same test.] as §3

[31] = system: BPH-1 (UZ); test: Cytostatic assay, BPH-1 (UZ); assay type: cell-based; details: Homo sapiens, Table 4
In short: as §1

[32] = system: Caki-2 kidney carcinoma cells; test: Cytostatic assay, Caki-2; assay type: cell-based; details: Homo sapiens, Table 3
In short: as §1

[33] = system: Huh-7 hepatoma cells; test: Cytostatic assay, Huh-7; assay type: cell-based; details: Homo sapiens, Table 4
In short: as §1

[34] = system: HT29 colorectal carcinoma cells; test: Cytostatic assay, HT29; assay type: cell-based; details: Homo sapiens, HT-29; Table 3
In short: as §1

[35] = system: DNA synthesis in Raji cells; test: Antimetabolic activity assay, [CH3-3H]dThd incorporation (DNA synthesis), Raji; assay type: cell-based; details: Homo sapiens, incorporation into TCA-insoluble material
Description: [The procedure below names another cell line; the source lists this cell line under the same test.] as §3

[36] = system: THP-1, human monocytic cells; test: Cytostatic assay, THP-1; assay type: cell-based; details: Table 2
In short: as §1

[37] = system: HepG2C3A hepatoma cells; test: Cytostatic assay, HepG2C3A; assay type: cell-based; details: Homo sapiens, HepG2/C3A; Table 4
In short: as §1

[38] = system: LNCaP (UZ) prostate cancer cells; test: Cytostatic assay, LNCaP (UZ); assay type: cell-based; details: Homo sapiens, Table 4
In short: as §1

[39] = system: Sup T1 cells; test: Cytostatic assay, Sup T1; assay type: cell-based; details: Homo sapiens, Table 2, read-out: Cytostatic activity (μM) Sup T 1
In short: as §1

[40] = system: RNA synthesis in Raji cells; test: Antimetabolic activity assay, [5-3H]uridine incorporation (RNA synthesis), Raji; assay type: cell-based; details: Homo sapiens, incorporation into TCA-insoluble material
Description: [The procedure below names another cell line; the source lists this cell line under the same test.] as §3

[41] = system: BAEC aortic endothelial cells; test: Cytostatic assay, BAEC; assay type: cell-based, bovine; details: Bos taurus, Table 3
In short: as §1

[42] = system: RNA synthesis in CEM cells; test: Antimetabolic activity assay, [5-3H]uridine incorporation (RNA synthesis), CEM; assay type: cell-based; details: Homo sapiens, CCRF-CEM, incorporation into TCA-insoluble material
Description: as §3

[43] = system: Caki-1 kidney carcinoma cells; test: Cytostatic assay, Caki-1; assay type: cell-based; details: Homo sapiens, Table 3
In short: as §1

CCOC(=O)c1cc(C#Cc2ccc(OC)cc2)sc1N [TR530, 2-Amino-5-(4-methoxy-phenylethynyl)-thiophene-3-carboxylic acid ethyl ester]
IC50 [1]: 41 ± 1.4 µM
IC50 [2]: 38 ± 7.8 µM
IC50 [3]: 41 ± 6.4 µM
IC50 [4]: 42 ± 5.5 µM
IC50 [5]: 48 ± 1.4 µM
IC50 [6]: 9.3 ± 8.4 µM
IC50 [7]: 40 ± 3.5 µM
IC50 [8]: 3.8 ± 1.7 µM
IC50 [9]: 43 ± 2.8 µM
IC50 [10]: 6.2 ± 8.5 µM
IC50 [11]: 35 ± 7.1 µM
IC50 [12]: 0.2 ± 0.07 µM
IC50 [13]: 22 ± 15 µM
IC50 [14]: 37 ± 0.71 µM
IC50 [15]: 44 ± 6.4 µM
IC50 [16]: 42 ± 0.71 µM
IC50 [17]: 37 ± 2.8 µM
IC50 [18]: 35 ± 13 µM
IC50 [19]: 0.96 ± 0.2 µM
IC50 [20]: 2.8 ± 0.14 µM
IC50 [21]: 40 ± 2 µM
IC50 ([22]; Table 1a, read-out: IC50 μM (CEM)): 0.7 µM
IC50 ([22]; Table 2, read-out: Cytostatic activity (μM) CEM): 0.73 ± 0.62 µM
IC50 ([23]; Homo sapiens, HuT78, range for the seven compounds, MT-4 and HUT-78 cells, read-out: IC50 range, cytostatic activity against MT-4 and HUT-78 cells): 8.5 to 60 µM
IC50 ([23]; range for the seven compounds against the 5 tumor cell lines, read-out: IC50 range, cytostatic activity against CEM, Molt4/C8, Sup T1, MT-2 and C8166 cells): 0.22 to 3.4 µM
IC50 [24]: 28 ± 3.5 µM
IC50 [25]: 0.22 µM
IC50 [26]: 0.29 ± 0.14 µM
IC50 [27]: 2.3 ± 1 µM
IC50 [28]: 6.3 ± 2.5 µM
IC50 [29]: 1.5 ± 0.21 µM
IC50 [30]: ≥ 100 µM
IC50 [31]: 41 ± 1.4 µM
IC50 [32]: 88 ± 17 µM
IC50 [33]: 1.5 ± 0.28 µM
IC50 [34]: 48 ± 23 µM
IC50 [35]: ≥ 100 µM
IC50 [36]: 44 ± 1.4 µM
IC50 [37]: 12 ± 2.1 µM
IC50 [38]: 0.26 ± 0.081 µM
IC50 [39]: 1.5 ± 0.14 µM
IC50 [40]: 60 ± 57 µM
IC50 [41]: 16 ± 16 µM
IC50 [42]: 0.66 ± 0.01 µM
IC50 [43]: 5.3 ± 2.2 µM
